Test [1] addresses T1, Ephrin type-A receptor 6 (Homo sapiens) (UniProt Q9UF33).
T1 sequence (whole entry): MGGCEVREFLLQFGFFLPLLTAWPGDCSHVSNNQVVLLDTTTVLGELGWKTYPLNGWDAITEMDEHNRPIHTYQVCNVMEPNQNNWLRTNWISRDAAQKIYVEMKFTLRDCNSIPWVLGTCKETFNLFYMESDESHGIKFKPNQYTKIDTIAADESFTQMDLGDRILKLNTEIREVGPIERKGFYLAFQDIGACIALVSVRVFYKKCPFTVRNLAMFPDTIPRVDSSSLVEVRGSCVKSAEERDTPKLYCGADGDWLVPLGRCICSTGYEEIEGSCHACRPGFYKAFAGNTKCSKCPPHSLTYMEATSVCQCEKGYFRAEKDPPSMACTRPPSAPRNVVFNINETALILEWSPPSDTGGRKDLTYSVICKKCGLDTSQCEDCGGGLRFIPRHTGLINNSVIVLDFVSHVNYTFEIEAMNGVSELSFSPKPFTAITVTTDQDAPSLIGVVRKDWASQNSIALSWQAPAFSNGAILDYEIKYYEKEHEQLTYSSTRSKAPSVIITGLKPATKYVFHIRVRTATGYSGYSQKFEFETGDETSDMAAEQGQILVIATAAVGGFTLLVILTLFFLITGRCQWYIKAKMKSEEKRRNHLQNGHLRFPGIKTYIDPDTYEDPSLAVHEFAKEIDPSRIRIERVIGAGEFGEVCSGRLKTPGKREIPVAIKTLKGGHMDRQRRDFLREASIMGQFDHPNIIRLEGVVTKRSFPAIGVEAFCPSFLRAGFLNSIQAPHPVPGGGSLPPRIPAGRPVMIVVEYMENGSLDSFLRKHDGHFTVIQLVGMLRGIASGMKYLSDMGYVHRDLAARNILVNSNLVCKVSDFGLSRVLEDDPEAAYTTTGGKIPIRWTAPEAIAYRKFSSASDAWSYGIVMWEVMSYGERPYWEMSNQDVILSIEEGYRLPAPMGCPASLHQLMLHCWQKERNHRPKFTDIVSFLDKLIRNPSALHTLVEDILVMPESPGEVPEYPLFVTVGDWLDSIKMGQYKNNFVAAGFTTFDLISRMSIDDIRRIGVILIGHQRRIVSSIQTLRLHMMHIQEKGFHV
In words: Selectivity interaction (KinomeScan (DiscoverX)) EUB0000595a EPHA6. To be noted: at 10 µM.

The subject of test [2] is Proto-oncogene tyrosine-protein kinase receptor Ret (Homo sapiens), P07949 [M918T]. In words: (§1) Selectivity interaction (KinomeScan (DiscoverX)) EUB0000666a RET. The conditions noted are these: at 10 µM.
The test system of test [3] is Proto-oncogene tyrosine-protein kinase receptor Ret (Homo sapiens), P07949 [V804L]. The test is described as §1. To be noted: at 10 µM.
Test [4] deals with Proto-oncogene tyrosine-protein kinase receptor Ret (Homo sapiens), P07949 [V804M]. The description is as §1. The conditions noted are these: at 10 µM.
Test [5] addresses Proto-oncogene tyrosine-protein kinase receptor Ret (Homo sapiens, UniProt P07949). Described as §1. To be noted: at 10 µM.
In test [6] the target is Casein kinase I isoform gamma-1 (Homo sapiens) (UniProt Q9HCP0). In words: Selectivity interaction (SelectScreen profiling (Invitrogen)) EUB0000607a CSNK1G1. The conditions noted are these: at 2 µM.
Test [7] addresses T2, Tyrosine-protein kinase receptor TYRO3 (Homo sapiens) (UniProt Q06418).
T2 sequence (whole entry): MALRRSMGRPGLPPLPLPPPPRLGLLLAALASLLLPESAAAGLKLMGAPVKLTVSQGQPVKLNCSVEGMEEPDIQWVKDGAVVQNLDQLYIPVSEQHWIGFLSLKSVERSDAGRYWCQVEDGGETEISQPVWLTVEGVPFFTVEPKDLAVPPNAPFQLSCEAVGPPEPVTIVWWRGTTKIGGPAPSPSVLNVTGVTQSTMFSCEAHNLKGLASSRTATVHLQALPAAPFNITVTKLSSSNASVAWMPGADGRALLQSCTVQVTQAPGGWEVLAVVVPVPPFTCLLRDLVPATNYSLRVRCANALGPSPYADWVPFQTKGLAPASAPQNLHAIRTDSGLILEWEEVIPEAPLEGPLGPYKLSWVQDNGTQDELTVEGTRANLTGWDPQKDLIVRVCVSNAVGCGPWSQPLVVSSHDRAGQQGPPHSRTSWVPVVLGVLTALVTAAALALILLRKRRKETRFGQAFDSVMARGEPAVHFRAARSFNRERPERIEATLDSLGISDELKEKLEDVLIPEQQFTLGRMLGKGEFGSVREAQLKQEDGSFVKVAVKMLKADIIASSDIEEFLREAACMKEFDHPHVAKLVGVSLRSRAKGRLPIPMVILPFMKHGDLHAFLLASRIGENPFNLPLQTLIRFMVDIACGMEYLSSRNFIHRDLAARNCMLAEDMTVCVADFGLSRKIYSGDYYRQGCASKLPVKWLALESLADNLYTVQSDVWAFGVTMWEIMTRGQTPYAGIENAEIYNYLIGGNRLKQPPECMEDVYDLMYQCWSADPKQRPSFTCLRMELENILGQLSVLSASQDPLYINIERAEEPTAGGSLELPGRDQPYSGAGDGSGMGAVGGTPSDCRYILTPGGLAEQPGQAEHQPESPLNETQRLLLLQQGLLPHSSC
In words: Selectivity interaction (Kinase screening (Nanosyn)) EUB0000604a TYRO3.

Test [8] addresses T3, Mitogen-activated protein kinase 13 (Homo sapiens) (UniProt O15264).
T3 sequence (whole entry): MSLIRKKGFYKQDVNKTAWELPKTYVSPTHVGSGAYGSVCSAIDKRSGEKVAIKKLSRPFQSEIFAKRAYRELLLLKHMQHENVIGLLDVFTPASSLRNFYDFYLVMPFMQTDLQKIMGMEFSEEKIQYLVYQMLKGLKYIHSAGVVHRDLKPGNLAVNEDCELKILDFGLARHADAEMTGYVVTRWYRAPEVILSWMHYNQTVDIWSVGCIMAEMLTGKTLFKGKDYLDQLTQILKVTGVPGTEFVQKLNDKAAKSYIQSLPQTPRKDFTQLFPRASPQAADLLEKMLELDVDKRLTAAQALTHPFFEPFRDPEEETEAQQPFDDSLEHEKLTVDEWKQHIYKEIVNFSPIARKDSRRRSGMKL
In words: Selectivity interaction (KinomeScan (DiscoverX)) EUB0000092b MAPK13. The conditions noted are these: at 10 µM.

The target in test [9] is Androgen receptor (Homo sapiens) (UniProt P10275). In words: Selectivity interaction (Panel of non-epigenetic targets (kinases, GPCRs, ion channels, and transporters, Eurofins) ) EUB0000271b AR. The conditions noted are these: at 1 µM.
The target of test [10] is Serine/threonine-protein kinase PAK 6 (Homo sapiens) (UniProt Q9NQU5). In words: Selectivity interaction (KinomeScan (DiscoverX)) EUB0001079a PAK6. The conditions noted are these: at 1 µM.

The structures appear in SMILES notation.

Proto-oncogene tyrosine-protein kinase receptor Ret (Homo sapiens), P07949 [V804M], sequence (P07949 whole entry V804M): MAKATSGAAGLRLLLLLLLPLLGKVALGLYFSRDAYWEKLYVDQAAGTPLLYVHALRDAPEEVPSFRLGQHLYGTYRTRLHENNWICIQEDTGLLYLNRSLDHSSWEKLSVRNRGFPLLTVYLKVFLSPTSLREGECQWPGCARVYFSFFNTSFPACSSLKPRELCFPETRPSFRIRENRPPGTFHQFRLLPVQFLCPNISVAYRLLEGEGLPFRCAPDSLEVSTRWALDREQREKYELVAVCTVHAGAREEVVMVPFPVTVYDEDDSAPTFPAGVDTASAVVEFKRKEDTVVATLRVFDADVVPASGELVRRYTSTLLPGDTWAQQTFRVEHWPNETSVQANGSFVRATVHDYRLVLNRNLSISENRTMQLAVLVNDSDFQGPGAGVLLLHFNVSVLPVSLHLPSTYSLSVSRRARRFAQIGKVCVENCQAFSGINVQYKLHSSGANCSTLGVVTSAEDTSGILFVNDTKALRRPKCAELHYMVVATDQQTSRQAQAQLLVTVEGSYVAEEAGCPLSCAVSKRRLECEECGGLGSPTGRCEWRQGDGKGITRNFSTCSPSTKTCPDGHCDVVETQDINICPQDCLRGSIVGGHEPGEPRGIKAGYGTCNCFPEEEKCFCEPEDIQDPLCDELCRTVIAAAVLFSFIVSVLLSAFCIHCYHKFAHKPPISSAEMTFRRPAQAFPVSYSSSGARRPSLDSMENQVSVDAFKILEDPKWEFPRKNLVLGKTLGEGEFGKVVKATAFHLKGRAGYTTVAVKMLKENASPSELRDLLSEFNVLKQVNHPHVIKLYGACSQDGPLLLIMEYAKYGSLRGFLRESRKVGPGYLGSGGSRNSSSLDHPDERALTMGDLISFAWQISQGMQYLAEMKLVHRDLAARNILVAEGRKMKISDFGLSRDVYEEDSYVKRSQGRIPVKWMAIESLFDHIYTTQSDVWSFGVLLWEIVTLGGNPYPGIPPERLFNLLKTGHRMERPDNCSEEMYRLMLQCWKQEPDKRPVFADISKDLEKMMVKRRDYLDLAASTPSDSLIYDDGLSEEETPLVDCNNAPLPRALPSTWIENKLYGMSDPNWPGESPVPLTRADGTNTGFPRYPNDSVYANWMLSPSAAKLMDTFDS
Serine/threonine-protein kinase PAK 6 (Homo sapiens), sequence (Q9NQU5 whole entry, looked up): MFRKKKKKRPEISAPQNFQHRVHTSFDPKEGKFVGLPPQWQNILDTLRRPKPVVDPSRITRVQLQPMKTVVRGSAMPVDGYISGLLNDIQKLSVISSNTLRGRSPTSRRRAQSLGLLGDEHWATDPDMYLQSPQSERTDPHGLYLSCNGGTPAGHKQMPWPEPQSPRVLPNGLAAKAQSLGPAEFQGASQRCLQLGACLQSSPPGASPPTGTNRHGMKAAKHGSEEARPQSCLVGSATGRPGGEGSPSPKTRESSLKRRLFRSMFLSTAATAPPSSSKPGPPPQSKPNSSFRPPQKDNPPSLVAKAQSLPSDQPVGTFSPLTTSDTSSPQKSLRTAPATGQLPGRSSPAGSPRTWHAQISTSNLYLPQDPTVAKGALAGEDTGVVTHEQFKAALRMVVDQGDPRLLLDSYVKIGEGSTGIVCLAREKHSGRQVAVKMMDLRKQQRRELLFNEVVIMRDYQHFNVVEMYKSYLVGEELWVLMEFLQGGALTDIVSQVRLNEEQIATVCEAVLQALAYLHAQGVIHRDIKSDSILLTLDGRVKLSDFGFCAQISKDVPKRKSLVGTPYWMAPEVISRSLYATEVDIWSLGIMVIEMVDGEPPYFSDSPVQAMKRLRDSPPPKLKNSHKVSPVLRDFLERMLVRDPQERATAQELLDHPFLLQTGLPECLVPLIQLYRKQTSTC
Proto-oncogene tyrosine-protein kinase receptor Ret (Homo sapiens), P07949 [V804L], sequence (P07949 whole entry V804L): as the sequence (P07949 whole entry V804M) above, with M804L counted along it
Androgen receptor (Homo sapiens), sequence (P10275 whole entry): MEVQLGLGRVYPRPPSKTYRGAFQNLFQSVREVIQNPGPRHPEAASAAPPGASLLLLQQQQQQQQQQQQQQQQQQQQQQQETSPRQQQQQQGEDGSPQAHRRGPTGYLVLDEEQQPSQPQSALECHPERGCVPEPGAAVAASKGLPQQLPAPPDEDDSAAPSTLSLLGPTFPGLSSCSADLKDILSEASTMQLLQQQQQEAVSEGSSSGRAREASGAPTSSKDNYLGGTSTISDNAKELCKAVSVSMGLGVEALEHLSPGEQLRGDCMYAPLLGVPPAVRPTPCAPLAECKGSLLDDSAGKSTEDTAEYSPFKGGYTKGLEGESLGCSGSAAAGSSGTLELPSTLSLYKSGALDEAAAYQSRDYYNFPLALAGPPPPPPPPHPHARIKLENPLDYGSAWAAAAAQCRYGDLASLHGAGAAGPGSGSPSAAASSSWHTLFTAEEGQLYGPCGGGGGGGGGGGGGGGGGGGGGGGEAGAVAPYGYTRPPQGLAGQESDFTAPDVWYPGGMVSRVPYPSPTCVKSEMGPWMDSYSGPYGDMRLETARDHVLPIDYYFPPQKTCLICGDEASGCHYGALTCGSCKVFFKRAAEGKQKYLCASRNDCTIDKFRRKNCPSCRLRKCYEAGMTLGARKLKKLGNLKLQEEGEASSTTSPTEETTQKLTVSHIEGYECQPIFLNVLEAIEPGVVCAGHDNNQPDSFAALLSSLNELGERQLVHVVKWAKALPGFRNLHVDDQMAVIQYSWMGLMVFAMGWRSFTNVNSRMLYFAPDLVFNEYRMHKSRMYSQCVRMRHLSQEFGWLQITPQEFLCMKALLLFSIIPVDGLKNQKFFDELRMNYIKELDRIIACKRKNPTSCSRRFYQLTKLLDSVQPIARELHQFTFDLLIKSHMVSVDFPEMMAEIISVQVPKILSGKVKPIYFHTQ
Proto-oncogene tyrosine-protein kinase receptor Ret (Homo sapiens), P07949 [M918T], sequence (P07949 whole entry M918T): as the sequence (P07949 whole entry V804M) above, with M804V, M918T counted along it
Casein kinase I isoform gamma-1 (Homo sapiens), sequence (Q9HCP0 whole entry, looked up, canonical isoform): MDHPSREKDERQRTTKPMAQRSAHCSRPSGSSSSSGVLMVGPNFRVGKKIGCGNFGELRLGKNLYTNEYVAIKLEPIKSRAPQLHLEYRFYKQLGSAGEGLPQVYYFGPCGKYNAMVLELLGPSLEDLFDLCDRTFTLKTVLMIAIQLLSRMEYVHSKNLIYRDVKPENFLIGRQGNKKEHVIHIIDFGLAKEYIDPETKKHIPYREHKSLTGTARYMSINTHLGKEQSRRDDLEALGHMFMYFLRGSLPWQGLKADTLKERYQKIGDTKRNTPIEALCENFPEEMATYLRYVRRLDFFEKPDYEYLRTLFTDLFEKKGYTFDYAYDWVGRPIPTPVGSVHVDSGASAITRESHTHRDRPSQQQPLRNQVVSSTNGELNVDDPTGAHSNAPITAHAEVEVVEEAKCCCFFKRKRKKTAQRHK
Proto-oncogene tyrosine-protein kinase receptor Ret, sequence (P07949 whole entry, canonical isoform): as the sequence (P07949 whole entry V804M) above, with M804V counted along it

Turning to `COCC(=O)NC/C=C/c1ccc2ncnc(Nc3ccc(Oc4ccc(C)nc4)c(C)c3)c2c1` [CP-724714], in [1], the % of control was found to be 96%.
In the case of `O=C(NOC[C@H](O)CO)c1ccc(F)c(F)c1Nc1ccc(I)cc1F`, the % of control in test [2] turned out to be 79%; in [3], 93%; in test [4], 100%; in [5], 90%.
As for `CNC(=O)Nc1ccc(-c2nc(N3CC4CCC(C3)O4)c3cnn(C4CCC5(CC4)OCCO5)c3n2)cc1`, in test [6], the % of inhibition was -2%.
Take `Cc1cnc(Nc2ccc(F)cc2Cl)nc1-c1c[nH]c(C(=O)N[C@H](CO)c2cccc(Cl)c2)c1`: in [7], the % of inhibition is 0%.
Take `CCC(=O)N1CCN(c2ccc(-n3c(=O)ccc4cnc5ccc(-c6cnc7ccccc7c6)cc5c43)cc2C(F)(F)F)CC1`: the % of control in test [8] came out at 39%.
On to `Cc1cc(C)cc([C@@H]2c3cc(C)ccc3NC(=O)CN2C(=O)c2ccc(Br)s2)c1`, for which the % of inhibition in test [9] was -7%.
Molecule `Nc1cnc(N2CCc3cc(S(=O)(=O)Nc4c(F)cc(Cl)cc4F)cc(N4CCCC4=O)c32)nc1` [TP-020n] displayed a % of control in [10] of 100%.

The record behind these values is ChEMBL document CHEMBL5465560, “Selectivity Literature for EUbOPEN Chemogenomic Library” (2024).
